Assay results as given in patent US20240408216A1, “PROTEIN INHIBITOR OR DEGRADING AGENT, PHARMACEUTICAL COMPOSITION CONTAINING SAME AND PHARMACEUTICAL USE” (JING MEDICINE TECHNOLOGY (SHANGHAI) LTD., priority 2021, published 2024).
Like-named read-outs stand apart in the source and are kept apart here.

Experiments:
[1] = tested on: BaF3 patent; assay: Cell proliferation IC50 assay (Cell Titer GLO), BaF3 parental cells; assay type: cell-based; conditions: Mus musculus
Procedure: IC50 of compounds in the present invention was determined by Cell Titer GLO reagent from Promega. The procedures are as follows:
Tumor cells were cultured in specified medium in an incubator at 37° C. and 5% CO2. The cells were passaged periodically. Cells at the logarithmic growth phase were collected for plating at a density of 2000-4000 cells/well. The next day, the compounds of the present invention were serially diluted and added to the cells, with DMSO being the negative control and the culture media without cells being the blank control. The plate was incubated in the incubator for 72 h. The cell viability assay was performed by adding the detection reagents to the cell culture media according to Cell Titer GLO reagent instructions and detecting luminescent signals on an EnVision microplate reader (PerkinElmer).
Inhibition of cell growth by the compounds of the present invention was plotted by Prism Graphpad software for statistically calculating the IC50 of the compound of the present invention.

[2] = tested on: BaF3 (EGFR L858R/T790M/C797S); assay: Cell proliferation IC50 assay (Cell Titer GLO), BaF3 LTC cells; assay type: cell-based; conditions: Mus musculus, Ba/F3 EGFR
In short: (§1)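 Log-phase cells seeded 2000-4000/well, serial compound dilutions added one day later; DMSO negative, medium-only blank.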

[3] = tested on: A431; assay: Cell proliferation IC50 assay (Cell Titer GLO), A431 cells; assay type: cell-based; conditions: Homo sapiens, A-431, A431, 72 h, read-out: A431 IC50
In short: as §1

[4] = tested on: BaF3 (EGFR Del19/T790M/C797S); assay: Cell proliferation IC50 assay (Cell Titer GLO), BaF3 DTC cells; assay type: cell-based; conditions: Mus musculus, Ba/F3 EGFR-Del19/T790M/C797S, Table 5, 72 h
In short: as §1

[5] = tested on: BaF3 (EGFR WT); assay: Cell proliferation IC50 assay (Cell Titer GLO), BaF3 WT cells; assay type: cell-based; conditions: Mus musculus, Ba/F3 EGFR, 72 h
In short: as §1

[6] = target: T1, BaF3 (EGFR Del19/C797S) (Homo sapiens, UniProt P00533, C797S, cells depend on it, form not given); assay: Cell proliferation IC50 assay (Cell Titer GLO), BaF3 DC cells; assay type: cell-based, mouse; conditions: Table 6, 72 h
T1 construct: BaF3 (EGFR Del19/C797S)|DC|RPMI1640 + 10% FBS
In short: as §1

T1 sequence (P00533 with tags, fused parts or gaps DEL746-750/C797S, form open): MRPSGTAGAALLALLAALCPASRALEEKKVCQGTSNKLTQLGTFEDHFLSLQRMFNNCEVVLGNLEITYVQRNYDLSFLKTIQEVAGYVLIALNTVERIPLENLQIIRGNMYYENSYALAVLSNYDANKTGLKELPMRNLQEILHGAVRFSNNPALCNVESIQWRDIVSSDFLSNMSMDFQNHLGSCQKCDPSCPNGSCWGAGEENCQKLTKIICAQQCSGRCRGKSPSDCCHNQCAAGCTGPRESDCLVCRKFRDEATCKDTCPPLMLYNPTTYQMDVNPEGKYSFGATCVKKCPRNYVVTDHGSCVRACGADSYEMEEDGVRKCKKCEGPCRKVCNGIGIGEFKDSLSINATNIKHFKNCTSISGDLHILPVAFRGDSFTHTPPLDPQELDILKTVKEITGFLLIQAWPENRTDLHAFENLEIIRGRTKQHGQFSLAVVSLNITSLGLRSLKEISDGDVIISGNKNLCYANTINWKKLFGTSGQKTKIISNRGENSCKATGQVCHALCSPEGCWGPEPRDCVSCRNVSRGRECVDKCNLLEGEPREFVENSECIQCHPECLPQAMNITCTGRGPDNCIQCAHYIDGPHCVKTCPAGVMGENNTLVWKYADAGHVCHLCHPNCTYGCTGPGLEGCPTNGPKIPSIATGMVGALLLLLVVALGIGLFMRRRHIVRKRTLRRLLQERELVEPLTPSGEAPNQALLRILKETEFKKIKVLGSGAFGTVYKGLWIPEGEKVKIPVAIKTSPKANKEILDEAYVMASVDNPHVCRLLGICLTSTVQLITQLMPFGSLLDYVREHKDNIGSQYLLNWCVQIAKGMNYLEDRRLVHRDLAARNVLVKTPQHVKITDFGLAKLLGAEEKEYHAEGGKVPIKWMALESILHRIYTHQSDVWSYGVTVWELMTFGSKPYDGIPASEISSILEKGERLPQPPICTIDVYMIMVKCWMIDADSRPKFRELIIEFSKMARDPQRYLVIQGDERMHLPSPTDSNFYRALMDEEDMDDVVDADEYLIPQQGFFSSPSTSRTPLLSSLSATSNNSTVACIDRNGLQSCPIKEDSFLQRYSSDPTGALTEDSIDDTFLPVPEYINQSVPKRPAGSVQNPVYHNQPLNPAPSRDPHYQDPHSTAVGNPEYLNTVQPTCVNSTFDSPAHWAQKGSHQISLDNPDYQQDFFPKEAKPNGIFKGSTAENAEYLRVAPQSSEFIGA

| IC50 ([2]; Table 5, 72 h) | IC50 ([3]; Table 5) | IC50 [4] | IC50 ([5]; Table 5, 10 ng/ml EGF) | IC50 ([2]; Table 6, 72 h) | IC50 ([3]; Table 6) | IC50 [6] | IC50 ([5]; Table 6, 10 ng/ml EGF) | SMILES | IC50 ([1]; Table 5, 10 ng/ml mIL3, 72 h) | IC50 ([1]; Table 6, 10 ng/ml mIL3, 72 h) |
| --- | --- | --- | --- | --- | --- | --- | --- | --- | --- | --- |
| 0.199 µM | 2.82 µM | 0.028 µM | 0.38 µM | – | – | – | – | COc1cc(N2CCC3(CCN(CCCC#Cc4cccc5c4CN(C4CCC(=O)NC4=O)C5=O)CC3)CC2)ccc1Nc1ncc(Cl)c(Nc2ccccc2P(C)(C)=O)n1 (centres unmarked) [Example C-1, reference compound] | 0.376 µM | – |
| 0.129 µM | 1.21 µM | 0.0437 µM | 0.587 µM | – | – | – | – | COc1cc(N2CCC(N3CCN(CC#Cc4cccc5c4CN(C4CCC(=O)NC4=O)C5=O)CC3)CC2)ccc1Nc1ncc(Cl)c(Nc2ccccc2P(C)(C)=O)n1 (centres unmarked) [Example C-3, reference compound] | 0.475 µM | – |
| 0.0707 µM | – | 0.0417 µM | – | – | – | – | – | COc1cc(N2CCC(N3CCN(CCCc4cccc5c4CN(C4CCC(=O)NC4=O)C5=O)CC3)CC2)ccc1Nc1ncc(Cl)c(Nc2ccccc2P(C)(C)=O)n1 (centres unmarked) [Example C-4, reference compound] | 0.143 µM | – |
| 0.103 µM | 1.23 µM | 0.0225 µM | 1.63 µM | – | – | – | – | COc1cc(N2CCC(N3CCN(CCCCCc4ccc5c(c4)CN(C4CCC(=O)NC4=O)C5=O)CC3)CC2)ccc1Nc1ncc(Cl)c(Nc2ccccc2P(C)(C)=O)n1 (centres unmarked) [Example C-5, reference compound] | 0.57 µM | – |
| 0.0336 µM | 0.342 µM | 0.0078 µM | 0.0792 µM | – | – | – | – | COc1cc(N2CCC(N3CCC4(CCC(Oc5cccc6c5CN(C5CCC(=O)NC5=O)C6=O)CC4)C3)CC2)ccc1Nc1ncc(Cl)c(Nc2ccccc2P(C)(C)=O)n1 (centres unmarked) [Example C-6, reference compound] | 0.093 µM | – |
| 0.0466 µM | – | 0.0143 µM | 0.287 µM | – | – | – | – | COc1cc(N2CCC(N3CCN(CCC#Cc4cccc5c4CN(C4CCC(=O)NC4=O)C5=O)CC3)CC2)c(C)cc1Nc1ncc(Cl)c(Nc2ccccc2P(C)(C)=O)n1 (centres unmarked) [Example E3] | 0.521 µM | – |
| 0.0112 µM | 0.393 µM | 0.0056 µM | 0.0284 µM | – | – | – | – | CCc1cc(Nc2ncc(Cl)c(Nc3ccccc3P(C)(C)=O)n2)ccc1N1CCC(N2CCN(CCC#Cc3cccc4c3CN(C3CCC(=O)NC3=O)C4=O)CC2)CC1 (centres unmarked) [Example E9] | 0.0207 µM | – |
| 0.0284 µM | 1.21 µM | 0.0155 µM | 0.101 µM | – | – | – | – | COc1cc(N2CCC(N3CCN(CCC#Cc4cccc5c4CN(C4CCC(=O)NC4=O)C5=O)CC3)CC2)c(Cl)cc1Nc1ncc(Cl)c(Nc2ccccc2P(C)(C)=O)n1 (centres unmarked) [Example E10] | 0.0549 µM | – |
| – | – | – | – | 0.0341 µM | 1.05 µM | 0.0041 µM | 0.275 µM | CCc1cc(Nc2ncc(Br)c(Nc3ccc4c(c3P(C)(C)=O)OCCO4)n2)c(OC)cc1N1CCC(N2CCN(CCC#Cc3cccc4c3CN(C3CCC(=O)NC3=O)C4=O)CC2)CC1 (centres unmarked) [Example E22] | – | 0.385 µM |
| – | – | – | – | 0.0175 µM | 1.21 µM | 0.0049 µM | 0.26 µM | CCc1cc(Nc2ncc(Cl)c(Nc3ccccc3P(C)(C)=O)n2)c(OC)cc1N1CCC(N2CCC3(CCC(=Cc4cccc5c4CN(C4CCC(=O)NC4=O)C5=O)CC3)C2)CC1 (centres unmarked) [Example E40] | – | 0.131 µM |
| – | – | – | – | 0.0158 µM | 1.06 µM | 0.0066 µM | 0.33 µM | COc1cc(N2CCC(N3CCN(CCC#Cc4cccc5c4CN(C4CCC(=O)NC4=O)C5=O)CC3)CC2)c(C)cc1Nc1ncc(Br)c(Nc2ccc3c(c2P(C)(C)=O)OCCO3)n1 (centres unmarked) [Example E43] | – | 0.122 µM |
| – | – | – | – | 0.0212 µM | 1.24 µM | 0.0085 µM | 0.585 µM | CCc1cc(Nc2ncc(Cl)c(Nc3ccccc3P(C)(C)=O)n2)c(OC)cc1N1CCC(N2CCC3(CCC(Cc4cccc5c4CN(C4CCC(=O)NC4=O)C5=O)CC3)C2)CC1 (centres unmarked) [Example E45] | – | 0.221 µM |
| – | – | – | – | 0.0623 µM | > 4 µM | 0.0544 µM | 1.55 µM | COc1cc(N2CCC(N3CCN(CCC#Cc4cccc5c4CN(C4CCC(=O)NC4=O)C5=O)CC3)CC2)ncc1Nc1ncc(Cl)c(Nc2ccccc2P(C)(C)=O)n1 (centres unmarked) [Example E71] | – | 0.719 µM |
